Results: US20160259918A1, “Computational Approach for Identifying a Combination of Two Drugs” (ALACRIS THERANOSTICS GMBH, priority 2013, published 2016)
Read-outs that look alike come from different tables or passages of the source.

System: cell line HS695T
Test: Cell viability via Trypan blue staining in cell culture experiments
Format: cell-based
Settings: Homo sapiens, Hs 695T
Method: Cell lines and pharmacological characterization. Cell line HS695T (CLS) was cultured in DMEM (4 mM L-glutamine, 4.5 g/l glucose, Invitrogen) with 10% fetal bovine serum (Biochrom) and maintained at 37° C. under 5% CO2 atmosphere. The cells were dispensed as triplicates into a 6-well-plate-formate with a concentration of 5×10^5 per well 24 hours prior to drug treatment. Afterwards medium was replaced with a final drug concentration range of 2.5 nM to 8 μM by 3.16-fold dilutions (eight-dose response) of Sunitinib and PI103 as single treatment HS695T for 72 and 96 hours. […] Compounds (Selleckchem) were diluted in DMSO. The final DMSO concentration for the experiments was under 0.4%. Cell viability was determined via Trypan blue staining in duplicates for each well. 100 μl of cells were incubated with an equal volume of 0.5% Trypan blue for 2-5 minutes (in 0.9% sodium chloride) and counted using a Neubauer haemocytometer chamber and a light microscope. The means of independent cell counts were taken for analysis.
Predicted growth inhibition curves were compared to measured growth inhibition curves as previously described.

Compound | IC50 (read-out: IC50 values determined by cell culture experiments) | IC50 (read-out: sensitivity classification according to IC50 determined by cell culture experiments) | IC50 (HS695T, read-out: sensitivity classification according to IC50 determined by cell culture experiments) | IC50 (HS695T, single treatment, 2.5 nM to 8 μM, 72 and 96 hours, Trypan blue cell counts, read-out: IC50 values determined by cell culture experiments)
Oc1cccc(-c2nc(N3CCOCC3)c3oc4ncccc4c3n2)c1 [PI103] | 0.83 µM | < 2 µM |  | 
CCN(CC)CCNC(=O)c1c(C)[nH]c(/C=C2\C(=O)Nc3ccc(F)cc32)c1C [Sunitinib] |  |  | > 2 µM | 4.7 µM
